Each compound was assayed against T1, androgen receptor (AR) (Homo sapiens, UniProt P10275) (assay: Androgen-induced PSA-luciferase assay, Luciferase Assay B (cells stably expressing ARR2PB or PSA-firefly luciferase reporter, 384-well)). Settings: Luciferase Assay B (Compounds A186-A219 and A221-A245); stable luciferase reporter cells, 1 h pretreatment, R1881 24 h, serum-free; read-out: PSA-Luc IC50 Range.
T1 sequence (P10275 1-920 T878A): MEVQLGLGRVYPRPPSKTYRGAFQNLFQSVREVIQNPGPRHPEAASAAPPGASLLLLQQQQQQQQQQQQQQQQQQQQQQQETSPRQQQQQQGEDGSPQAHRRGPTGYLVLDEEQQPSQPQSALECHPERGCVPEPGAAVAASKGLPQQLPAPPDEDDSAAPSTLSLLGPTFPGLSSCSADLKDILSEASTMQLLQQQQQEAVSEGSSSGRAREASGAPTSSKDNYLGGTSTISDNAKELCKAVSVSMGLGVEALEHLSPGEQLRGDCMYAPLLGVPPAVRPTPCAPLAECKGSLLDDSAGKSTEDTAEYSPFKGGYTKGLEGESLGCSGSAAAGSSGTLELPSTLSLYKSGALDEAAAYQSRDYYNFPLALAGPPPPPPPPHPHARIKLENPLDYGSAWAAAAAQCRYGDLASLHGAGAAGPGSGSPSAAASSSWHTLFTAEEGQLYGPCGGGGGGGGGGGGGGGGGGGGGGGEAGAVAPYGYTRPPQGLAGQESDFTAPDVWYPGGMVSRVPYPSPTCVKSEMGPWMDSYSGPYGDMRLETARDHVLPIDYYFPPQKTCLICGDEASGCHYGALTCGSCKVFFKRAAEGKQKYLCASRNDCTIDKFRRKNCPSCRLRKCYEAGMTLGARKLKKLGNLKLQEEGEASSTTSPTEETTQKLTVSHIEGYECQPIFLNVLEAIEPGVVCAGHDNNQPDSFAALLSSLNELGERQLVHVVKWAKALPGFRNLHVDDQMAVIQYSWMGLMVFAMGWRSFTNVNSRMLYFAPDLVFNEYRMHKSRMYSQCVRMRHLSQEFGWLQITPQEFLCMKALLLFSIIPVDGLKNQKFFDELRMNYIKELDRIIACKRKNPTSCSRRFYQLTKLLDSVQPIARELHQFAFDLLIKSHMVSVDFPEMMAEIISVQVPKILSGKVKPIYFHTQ
Format: cell-based
Protocol: Luciferase Assay B: Cells stably expressing probasin promoter (ARR2PB) or human prostate-specific antigen (PSA)-firefly luciferase reporter were plated in poly-D-lysine-coated 384-well plates. 48 h after plating, cells were pretreated with vehicle or compounds for 1 h before adding R1881 under serum-free and phenol red-free conditions and then further incubated for 24 h. R1881 was added only for LNCaP cells. Firefly luciferase activities were determined by EnVision plate reader (Perkinemer) using the Steady-Glo Luciferase Reporter Assay System (Promega). Values were normalized to protein content. GraphPad Prism graphing software was used to calculate IC50 values. Luciferase Assay B was run for Compounds A186-A219 and A221-A245 in Table 2.
(§1) Statistical analyses were performed using GraphPad Prism (Version 6.01 for Windows; La Jolla, CA, USA). Comparisons between treatment and control groups were compared using Two-Way ANOVA with post-hoc Dunnett's and Tukey's tests. Differences were considered statistically significant at P values less than 0.05.

| IC50 [µM] | SMILES |
| --- | --- |
| > 2 | N#Cc1cc(Oc2ccc(-c3ccc4nc(N)cnc4c3)cc2)cc(Cl)c1OC1CC1 [Compound A194] |
| 0.5 to 2 | CS(=O)(=O)NCc1cnc(-c2ccc(Oc3cc(Cl)c(OC4CC4)c(C#N)c3)cc2)cn1 [Compound A213] |
| 0.5 to 2 | CS(=O)(=O)Nc1cnc2ccc(-c3ccc(Oc4cc(Cl)c(OC5CC5)c(C#N)c4)cc3)cc2n1 [Compound A193] |
| 0.5 to 2 | CS(=O)(=O)Nc1cc2cnn(Cc3ccc(Oc4cc(Cl)c(OC5CC5)c(C#N)c4)cc3)c2cn1 [Compound A225] |
| 0.5 to 2 | CCCOc1c(Cl)cc(Oc2ccc(-c3ccc4nc(NS(C)(=O)=O)cnc4c3)cc2)cc1C#N [Compound A188] |
| 0.5 to 2 | CS(=O)(=O)Nc1cnc2cc(-c3ccc(N(CC(F)(F)F)c4cnc(N5CCOCC5)c(C#N)c4)cc3)ccc2n1 [Compound A233] |
| > 2 | CS(=O)(=O)Nc1cnc2cc(-c3ccc(Oc4cnc(OC5CC5)c(C#N)c4)cc3)ccc2n1 [Compound A217] |

Each compound was assayed against T2, androgen receptor (AR) (Homo sapiens, UniProt P10275, T878A) (assay: Androgen-induced PSA-luciferase assay, Luciferase Assay A (LNCaP transiently transfected with PSA (6.1 kb)-luciferase reporter)). Settings: LNCaP cells, 1 h pretreatment, R1881 (1 nM) 24 h, read-out: PSA-Luc IC50 Range.
T2 construct: endogenous in cells; host or cells: LNCaP
T2 sequence (P10275 1-920 T878A): T1 sequence (P10275 1-920 T878A)
Format: cell-based
Protocol: The PSA (6.1 kb)-luciferase reporter contains functional AREs (androgen response elements) to which AR binds in response to androgen to induce luciferase activity. LNCaP cells were transiently transfected with the PSA (6.1 kb)-luciferase reporter for 24 h, and then pretreated with vehicle (DMSO) or indicated concentration of representative compounds for one hour prior to the addition of synthetic androgen, R1881 (1 nM). After 24 h of incubation with R1881, the cells were harvested, and relative luciferase activities were determined (FIG. 1). To determine the IC50, treatments were normalized to vehicle control activity induced by R1881 (Table 2).
Luciferase Assay A: Cells were lysed using Passive Lysis Buffer (Promega) and then collected into V-bottom 96-well tissue culture plates. Lysates were centrifuged at 4° C. for 5 minutes at 3000 rpm. To measure luminescence of LNCaP cell lysates the Firefly Luciferase Assay System (Promega) was employed, according to manufacturer's protocol. Relative luminescence units (RLU) in cell lysates were detected for 10 seconds using Promega GloMax-Multi Detection Luminometer (Promega). Values were normalized to protein content. GraphPad Prism graphing software was used to calculate IC50 values. Luciferase Assay A was run for all compounds in Table 2 unless otherwise noted below.
as §1

| IC50 [µM] | SMILES |
| --- | --- |
| 0.5 to 2 | CC(C)(c1ccc(OCc2ccnc(-n3cnc(S(N)(=O)=O)c3)n2)cc1)c1cc(Cl)c(OCCCl)c(C#N)c1 [Compound A106] |
| 0.5 to 2 | CC(C)(c1ccc(OCc2ccnc(NS(C)(=O)=O)n2)cc1)c1cc(Cl)c(N2CCOC3(CC3)C2)c(C#N)c1 [Compound A148] |
| > 2 | CC(C)(c1ccc(OCc2ccnc(NS(C)(=O)=O)n2)cc1)c1cc(Cl)c(OCCN2C(=O)CCCC2=O)c(C#N)c1 [Compound A180] |
| 0.5 to 2 | CC(C)(c1ccc(OCc2ccnc(NS(C)(=O)=O)n2)cc1)c1cc(Cl)c(OCc2ccccc2)c(C#N)c1 [Compound A182] |
| 0.5 to 2 | CS(=O)(=O)Nc1cnc2cc(-c3ccc(Oc4cc(F)c(OC5CC5)c(C#N)c4)cc3)ccc2n1 [Compound A154] |
| 0.5 to 2 | CC(C)(c1ccc(OC2CC3(CC(NS(C)(=O)=O)C3)C2)cc1)c1cc(Cl)c(OCCCl)c(C#N)c1 (centres unmarked) [Compound A150] |
| 0.5 to 2 | CC(C)(c1ccc(OCc2ccnc(NS(C)(=O)=O)n2)cc1)c1cc(Cl)c(OCC2CCC2)c(C#N)c1 [Compound A146] |
| > 2 | CS(=O)(=O)Nc1cnc2cc(N3CCC(Oc4cc(Cl)c(OCCCl)c(C#N)c4)CC3)ccc2n1 [Compound A88] |
| > 2 | CC(C)(c1ccc(N2CCC(N3CC(NS(C)(=O)=O)C3)CC2)cc1)c1cc(Cl)c(OCCCl)c(C#N)c1 [Compound A47] |
| > 2 | CC(C)(c1ccc(OCc2ccnc(NS(C)(=O)=O)n2)cc1)c1cc(Cl)c(OC2COC2)c(C#N)c1 [Compound A56] |
| 0.5 to 2 | CS(=O)(=O)NC1CN(c2ccc(-c3ccc(Oc4cc(Cl)c(OCCCl)c(C#N)c4)cc3)cn2)C1 [Compound A38] |
| > 2 | CC(C)(c1ccc(OCc2ccnc(-n3cc(S(N)(=O)=O)cn3)n2)cc1)c1cc(Cl)c(OCCCl)c(C#N)c1 [Compound A104] |
| 0.5 to 2 | CC(C)(c1ccc(OCc2ccnc(NS(C)(=O)=O)n2)cc1)c1cc(Cl)c(CCCl)c(C#N)c1 [Compound A136] |
| > 2 | CS(=O)(=O)Nc1nccc(COc2ccc(Cc3cc(Cl)c(OCCCl)c(C#N)c3)cc2)n1 [Compound A185] |
| 0.5 to 2 | CN(c1nccc(Oc2ccc(C(C)(C)c3cc(Cl)c(OCCCl)c(C#N)c3)cc2)n1)S(C)(=O)=O [Compound A135] |
| 0.5 to 2 | CC(C)(c1ccc(OCC23CC(NS(C)(=O)=O)(C2)C3)cc1)c1cc(Cl)c(N2CCOCC2)c(C#N)c1 [Compound A142] |
| 0.5 to 2 | CC(C)(c1ccc(OC[C@H]2C[C@H](CNS(C)(=O)=O)C2)cc1)c1cc(Cl)c(OCCCl)c(C#N)c1 [Compound A64] |
| 0.5 to 2 | CC(C)(c1ccc(OCc2ccc(F)c(NS(C)(=O)=O)n2)cc1)c1cc(Cl)c(OCCCl)c(C#N)c1 [Compound A125] |
| 0.5 to 2 | CC(C)(c1ccc(OCc2ccnc(NS(C)(=O)=O)n2)cc1)c1cc(Cl)c(N2CCCC(F)(F)C2)c(C#N)c1 [Compound A152] |
| < 0.5 | CS(=O)(=O)NCC1CN(c2ncc(-c3ccc(Oc4cc(Cl)c(OCCCl)c(C#N)c4)cc3)cn2)C1 [Compound A96] |

| IC50 [µM] | SMILES |
| --- | --- |
| > 2 | CC(C)(c1ccc(OCc2ccnc(NS(C)(=O)=O)n2)cc1)c1cc(Cl)c(N2CCC(F)CC2)c(C#N)c1 [Compound A153] |
| > 2 | CN(c1ccc(OCc2ccnc(NS(C)(=O)=O)n2)cc1)c1cc(C#N)c(OCCCl)cn1 [Compound A171] |
| > 2 | CC(C)(c1ccc(-c2cncc(N3CC(NS(C)(=O)=O)C3)n2)cc1)c1cc(Cl)c(OCCCl)c(C#N)c1 [Compound A41] |
| > 2 | CC(C)(c1ccc(CN2CCC(NS(C)(=O)=O)CC2)cc1)c1cc(Cl)c(OCCCl)c(C#N)c1 [Compound A8] |
| > 2 | CC(C)(c1ccc(CN2CCC(NS(C)(=O)=O)C(F)(F)C2)cc1)c1cc(Cl)c(OCCCl)c(C#N)c1 (centres unmarked) [Compound A34] |
| 0.5 to 2 | CC(C)(c1ccc(OCc2ccnc(NS(C)(=O)=O)n2)cc1)c1cc(Cl)c(N2CCN(CC(F)(F)F)CC2)c(C#N)c1 [Compound A134] |
| 0.5 to 2 | CC(C)(c1ccc(-c2ccc(N3CC(NS(C)(=O)=O)C3)nn2)cc1)c1cc(Cl)c(OCCCl)c(C#N)c1 [Compound A69] |
| 0.5 to 2 | CC(C)(c1ccc(OCc2ccnc(NS(C)(=O)=O)n2)cc1)c1cc(Cl)c(OC(F)F)c(C#N)c1 [Compound A42] |
| 0.5 to 2 | CC(C)(c1ccc(-c2ccc3c(c2)COC32CN(S(C)(=O)=O)C2)cc1)c1cc(Cl)c(OCCCl)c(C#N)c1 [Compound A10] |
| 0.5 to 2 | CS(=O)(=O)Nc1cnc2cc(-c3ccc(Oc4cc(Cl)c(OCCCl)c(C#N)c4)cc3)cnc2n1 [Compound A49] |
| 0.5 to 2 | CC(C)(c1ccc(OC2CC3(C2)CN(S(C)(=O)=O)C3)cc1)c1cc(Cl)c(N2CCOCC2)c(C#N)c1 [Compound A140] |
| > 2 | CC(C)(c1ccc(OCc2ccnc(NS(C)(=O)=O)n2)cc1)c1cc(Cl)c(CCO)c(C#N)c1 [Compound A129] |
| 0.5 to 2 | CC(C)(C)OC(=O)N1CCN(Cc2cc(C(C)(C)c3cc(Cl)c(OCCCl)c(C#N)c3)ccc2OCc2ccnc(NS(C)(=O)=O)n2)CC1 [Compound A112] |
| > 2 | CS(=O)(=O)NC1CN(c2ncc(-c3ccc(Oc4cc(Cl)c(OCCCl)c(C#N)c4)cc3)cn2)C1 [Compound A70] |
| 0.5 to 2 | CC(C)(c1ccc(OCc2ccnc(NS(C)(=O)=O)n2)cc1)c1cc(Cl)c(OC2CC(F)(F)C2)c(C#N)c1 [Compound A121] |
| 0.5 to 2 | CS(=O)(=O)NC12CC(n3cc(-c4ccc(Oc5cc(Cl)c(OCCCl)c(C#N)c5)cc4)cn3)(C1)C2 [Compound A99] |
| > 2 | CC(C)(c1ccc(OCc2cc(C3CCNCC3)nc(NS(C)(=O)=O)n2)cc1)c1cc(Cl)c(OCCCl)c(C#N)c1 [Compound A114] |
| > 2 | CS(=O)(=O)N1CCc2cc(-c3ccc(Oc4cc(Cl)c(OCCCl)c(C#N)c4)cc3)ccc2C1 [Compound A120] |
| > 2 | CS(=O)(=O)Nc1nccc(COc2ccc(Oc3cc(Cl)c(OCCCl)c(C#N)c3)cc2)n1 [Compound A122] |

| SMILES | IC50 [µM] |
| --- | --- |
| CC(C)(c1ccc(OCc2ccnc(NS(C)(=O)=O)n2)cc1)c1cc(Cl)c(N2CC3CC(C2)O3)c(C#N)c1 [Compound A126] | > 2 |

From patent US20230373934A1, “ANDROGEN RECEPTOR MODULATORS AND METHODS FOR THEIR USE” (ESSA Pharma, Inc., priority 2022, published 2023)
